Results taken from US20150057366A1, “SYNTHESIS OF ELEMICIN AND TOPICAL ANALGESIC COMPOSITIONS” (priority 2012, published 2015).

Test: Preliminary work by the applicant on topical analgesic effectiveness of elemicin compositions
Format: in vivo

| Structure (SMILES) | effectiveness in analgesic compositions (topical analgesic compositions, work thus far by the inventor) | elemicin content compositions require to start being effective as topical analgesics (topical composition, 30% more preferred, preliminary work) | analgesic effectiveness at the concentrations occurring in natural oils (topical, around 2.4-3.0% in nutmeg and manila elemi oils, up to around 10-14% in mace and some elemi oil) |
| --- | --- | --- | --- |
| C/C=C/c1cc(OC)c(OC)c(OC)c1 [iso-elemicin] | also effective |  |  |
| C=CCc1cc(OC)c(OC)c(OC)c1 [elemicin, 1,2,3-Trimethoxy-5-prop-2-enylbenzene] |  | at least 20% | analgesic effectiveness does not occur at such low doses |
